Assay results: patent publication US8609653B2, “Azaindole compounds and methods for treating HIV” (priority 2011, dated 2013)
Counter-ions that a name gives are not always drawn.

The compounds below were run on HIV (assay: MT4 assay: antiviral HIV activity in MT-4 cells). Conditions: Human immunodeficiency virus 1, MT4, 96 h, read-out: HIV MT4 Assay IC50 (μM), HTLV-1 transformed cell line MT-4; read-out 96 hours later with cell titer glo; 10 point dose response.
Assay type: cell-based
Summary of the method: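 Compounds tested in HTLV-1-transformed MT-4 cells for protection from HIV, with cytotoxicity run in parallel under the same conditions; CellTiter-Glo luminescence read 96 h later. IC50 from 10-point, 3–4-fold serial dilutions spanning >1000-fold, % inhibition relative to no-compound control, fitted by four-parameter logistic.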

First: Cc1nc2c(ccn2[C@@H](C)c2ccc(F)cc2)c(-c2ccc3c(c2)CCCO3)c1[C@@H](OC(C)(C)C)C(=O)O [Example 84, (R)-2-(tert-butoxy)-2-(4-(chroman-6-yl)-1-((S)-1-(4-fluorophenyl)ethyl)-6-methyl-1H-pyrrolo[2,3-b]pyridin-5-yl)acetic acid]
Second: Cc1nc2c(ccn2[C@@H](C)c2ccc(F)cc2)c(-c2ccc3c(c2)CCCO3)c1[C@H](OC(C)(C)C)C(=O)O [Example 85, (S)-2-(tert-butoxy)-2-(4-(chroman-6-yl)-1-((S)-1-(4-fluorophenyl)ethyl)-6-methyl-1H-pyrrolo[2,3-b]pyridin-5-yl)acetic acid]
The IC50 of the first is 7.7-fold lower: 0.124 µM for the first, 0.955 µM for the second.

Going from `Cc1nc2c(ccn2Cc2cccc(F)c2F)c(-c2ccc3c(c2)CCCO3)c1[C@@H](OC(C)(C)C)C(=O)O` [Example 86, (R)-2-(tert-butoxy)-2-(4-(chroman-6-yl)-1-(2,3-difluorobenzyl)-6-methyl-1H-pyrrolo[2,3-b]pyridin-5-yl)acetic acid] to `Cc1nc2c(ccn2Cc2ccc(F)c(F)c2)c(-c2ccc3c(c2)CCO3)c1[C@H](OC(C)(C)C)C(=O)O` [Example 112, (S)-2-(tert-butoxy)-2-(1-(3,4-difluorobenzyl)-4-(2,3-dihydrobenzofuran-5-yl)-6-methyl-1H-pyrrolo[2,3-b]pyridin-5-yl)acetic acid], the IC50 falls from 50 µM to 0.011 µM (4500-fold). The second is the more potent here.

Going from `Cc1ccc(-c2c([C@H](OC(C)(C)C)C(=O)O)c(C)nc3c2ccn3Cc2ccccc2F)cc1` [Example 88, (S)-2-(tert-butoxy)-2-(1-(2-fluorobenzyl)-6-methyl-4-(p-tolyl)-1H-pyrrolo[2,3-b]pyridin-5-yl)acetic acid] to `Cc1nc2c(ccn2Cc2ccc(F)cc2Cl)c(-c2ccc(Cl)cc2)c1[C@H](OC(C)(C)C)C(=O)O` [Example 89, (S)-2-(tert-butoxy)-2-(1-(2-chloro-4-fluorobenzyl)-4-(4-chlorophenyl)-6-methyl-1H-pyrrolo[2,3-b]pyridin-5-yl)acetic acid], the IC50 falls from 0.107 µM to 0.065 µM (1.6-fold).

Compared with `Cc1nc2c(ccn2Cc2ccc(F)cc2)c(-c2ccc(Cl)cc2F)c1C(OC(C)(C)C)C(=O)O` (stereo not shown) [Example 90, 2-(tert-Butoxy)-2-(4-(4-chloro-2-fluorophenyl)-1-(4-fluorobenzyl)-6-methyl-1H-pyrrolo[2,3-b]pyridin-5-yl)acetic acid], `Cc1ccc(-c2c(C(OC(C)(C)C)C(=O)O)c(C)nc3c2ccn3Cc2ccc(F)cc2)c(F)c1` (stereo not shown) [Example 93, 2-(tert-Butoxy)-2-(4-(2-fluoro-4-methylphenyl)-1-(4-fluorobenzyl)-6-methyl-1H-pyrrolo[2,3-b]pyridin-5-yl)acetic acid] is 10-fold lower in IC50: 0.48 µM for the first, 0.046 µM for the second.

Compared with `Cc1nc2c(ccn2Cc2ccc(F)cc2)c(-c2ccccc2F)c1C(OC(C)(C)C)C(=O)O` (stereo not shown) [Example 91, 2-(tert-Butoxy)-2-(1-(4-fluorobenzyl)-4-(2-fluorophenyl)-6-methyl-1H-pyrrolo[2,3-b]pyridin-5-yl)acetic acid], `Cc1cc(Cl)ccc1-c1c(C(OC(C)(C)C)C(=O)O)c(C)nc2c1ccn2Cc1ccc(F)cc1` (stereo not shown) [Example 94, 2-(tert-Butoxy)-2-(4-(4-chloro-2-methylphenyl)-1-(4-fluorobenzyl)-6-methyl-1H-pyrrolo[2,3-b]pyridin-5-yl)acetic acid, Trifluoroacetic acid salt] is 1.5-fold lower in IC50: 0.168 µM for the first, 0.11 µM for the second. The second is the more potent here.

`COc1c(C)cc(-c2c(C(OC(C)(C)C)C(=O)O)c(C)nc3c2ccn3Cc2ccc(F)cc2)cc1C` (stereo not shown) [Example 92, 2-(tert-Butoxy)-2-(1-(4-fluorobenzyl)-4-(4-methoxy-3,5-dimethylphenyl)-6-methyl-1H-pyrrolo[2,3-b]pyridin-5-yl)acetic acid] and `COc1ccc(-c2c([C@H](OC(C)(C)C)C(=O)O)c(C)nc3c2ccn3Cc2ccc(F)c(F)c2)cc1C` [Example 103, (S)-2-(tert-Butoxy)-2-(1-(3,4-difluorobenzyl)-4-(4-methoxy-3-methylphenyl)-6-methyl-1H-pyrrolo[2,3-b]pyridin-5-yl)acetic acid] are within 1.5-fold of each other in IC50: 0.98 µM for the first, 0.81 µM for the second.

First: Cc1nc2c(ccn2Cc2ccc(F)c(F)c2)c(-c2ccc(F)cc2)c1[C@H](OC(C)(C)C)C(=O)O [Example 102, (S)-2-(tert-Butoxy)-2-(1-(3,4-difluorobenzyl)-4-(4-fluorophenyl)-6-methyl-1H-pyrrolo[2,3-b]193pyridine-5-yl)acetic acid]
Second: Cc1nc2c(ccn2Cc2ccc(F)c(F)c2)c(-c2ccc(F)c(Cl)c2)c1[C@H](OC(C)(C)C)C(=O)O [Example 105, (S)-2-(tert-Butoxy)-2-(4-(3-chloro-4-fluorophenyl)-1-(3,4-difluorobenzyl)-6-methyl-1H-pyrrolo[2,3-b]pyridin-5-yl)acetic acid]
The IC50 of the first is 3.9-fold lower: 0.367 µM for the first, 1.42 µM for the second. The first is the more potent here.

Going from `Cc1nc2c(ccn2Cc2ccc(F)c(F)c2)c(-c2ccc(Cl)c(F)c2)c1[C@H](OC(C)(C)C)C(=O)O` [Example 106, (S)-2-(tert-Butoxy)-2-(4-(4-chloro-3-fluorophenyl)-1-(3,4-difluorobenzyl)-6-methyl-1H-pyrrolo[2,3-b]pyridin-5-yl)acetic acid] to `Cc1ccc(-c2c([C@H](OC(C)(C)C)C(=O)O)c(C)nc3c2ccn3Cc2ccc(F)c(F)c2)c(F)c1` [Example 115, (2S)-2-(tert-Butoxy)-2-(1-(3,4-difluorobenzyl)-4-(2-fluoro-4-methylphenyl)-6-methyl-1H-pyrrolo[2,3-b]pyridin-5-yl)acetic acid], the IC50 falls from 0.1 µM to 0.029 µM (3.4-fold). The second is the more potent here.

Compared with `Cc1nc2c(c(-c3ccc4c(c3C)CCCO4)c1[C@H](OC(C)(C)C)C(=O)O)CCN2Cc1ccc(F)c(F)c1` [Example 107, (2S)(M)-2-(tert-Butoxy)-2-(1-(3,4-difluorobenzyl)-6-methyl-4-(5-methylchroman-6-yl)-2,3-dihydro-1H-pyrrolo[2,3-b]pyridin-5-yl)acetic acid, Trifluoroacetic acid salt], `Cc1cc(F)ccc1Cn1ccc2c(-c3ccc4c(c3C)CCCO4)c([C@H](OC(C)(C)C)C(=O)O)c(C)nc21` [Example 125, (2S)-2-(tert-butoxy)-2-(1-(4-fluoro-2-methylbenzyl)-6-methyl-4-(5-methylchroman-6-yl)-1H-pyrrolo[2,3-b]pyridin-5-yl)acetic acid] is 2.7-fold lower in IC50: 0.008 µM for the first, 0.003 µM for the second.

Going from `Cc1nc2c(ccn2Cc2ccc(F)c(F)c2)c(C2=CCC(C)(C)CC2)c1[C@H](OC(C)(C)C)C(=O)O` [Example 114, (S)-2-(tert-butoxy)-2-(1-(3,4-difluorobenzyl)-4-(4,4-dimethylcyclohex-1-en-1-yl)-6-methyl-1H-pyrrolo[2,3-b]pyridin-5-yl)acetic acid] to `Cc1nc2c(ccn2Cc2ccc(F)c(F)c2)c(C2=CCCCC2)c1[C@H](OC(C)(C)C)C(=O)O` [Example 120, (S)-2-(tert-butoxy)-2-(4-(cyclohex-1-en-1-yl)-1-(3,4-difluorobenzyl)-6-methyl-1H-pyrrolo[2,3-b]pyridin-5-yl)acetic acid], the IC50 rises from 0.08 µM to 0.15 µM (1.9-fold). The first is the more potent here.

First: Cc1nc2c(ccn2Cc2ccc(F)c(F)c2)c(-c2ccc3ncsc3c2)c1[C@H](OC(C)(C)C)C(=O)O [Example 117, (S)-2-(4-(Benzo[d]thiazol-6-yl)-1-(3,4-difluorobenzyl)-6-methyl-1H-pyrrolo[2,3-b]pyridin-5-yl)-2-(tert-butoxy)acetic acid, Trifluoroacetic acid salt]
Second: Cc1nc2c(ccn2Cc2ccc(F)c(F)c2)c(-c2ccc3c(c2)C(C)(C)CO3)c1[C@H](OC(C)(C)C)C(=O)O [Example 123, (S)-2-(tert-butoxy)-2-(1-(3,4-difluorobenzyl)-4-(3,3-dimethyl-2,3-dihydrobenzofuran-5-yl)-6-methyl-1H-pyrrolo[2,3-b]pyridin-5-yl)acetic acid]
The IC50 of the first is 79-fold lower: 0.036 µM for the first, 2.86 µM for the second.

Compared with `COc1cccc(F)c1Cn1ccc2c(-c3ccc4c(c3C)CCCO4)c([C@H](OC(C)(C)C)C(=O)O)c(C)nc21` [Example 121, (2S)-2-(tert-butoxy)-2-(1-(2-fluoro-6-methoxybenzyl)-6-methyl-4-(5-methylchroman-6-yl)-1H-pyrrolo[2,3-b]pyridin-5-yl)acetic acid], `Cc1nc2c(c(-c3ccc4c(c3C)CCCO4)c1C(OC(C)(C)C)C(=O)O)c1ccccc1n2C` (stereo not shown) [Example 127, 2-(tert-butoxy)-2-(2,9-dimethyl-4-(5-methylchroman-6-yl)-9H-pyrido[2,3-b]indol-3-yl)acetic acid] is 25-fold higher in IC50: 0.002 µM for the first, 0.05 µM for the second. The first is the more potent here.

`Cc1nc2c(c3c(n2C2CC2)CCCC3)c(-c2ccc3c(c2C)CCCO3)c1C(OC(C)(C)C)C(=O)O` (stereo not shown) [Example 128, 2-(tert-butoxy)-2-(9-cyclopropyl-2-methyl-4-(5-methylchroman-6-yl)-6,7,8,9-tetrahydro-5H-pyrido[2,3-b]indol-3-yl)acetic acid] was tested, and the IC50 was 0.06 µM.
